{"source": "BigSolDB 2.1", "data": [{"compound": "CCCSc1nc(N[C@@H]2C[C@H]2c2ccc(F)c(F)c2)c2nnn([C@@H]3C[C@H](OCCO)[C@@H](O)[C@H]3O)c2n1", "values": [{"measurement": "solubility (mole fraction)", "setting": "in ethyl acetate, 273.15 K", "result": 0.00246}, {"measurement": "solubility (mole fraction)", "setting": "in ethyl acetate, 278.15 K", "result": 0.00306}, {"measurement": "solubility (mole fraction)", "setting": "in ethyl acetate, 283.15 K", "result": 0.00399}, {"measurement": "solubility (mole fraction)", "setting": "in ethyl acetate, 288.15 K", "result": 0.00496}, {"measurement": "solubility (mole fraction)", "setting": "in ethyl acetate, 293.15 K", "result": 0.00602}, {"measurement": "solubility (mole fraction)", "setting": "in ethyl acetate, 298.15 K", "result": 0.00717}, {"measurement": "solubility (mole fraction)", "setting": "in ethyl acetate, 303.15 K", "result": 0.00899}, {"measurement": "solubility (mole fraction)", "setting": "in ethyl acetate, 308.15 K", "result": 0.0112}, {"measurement": "solubility (mole fraction)", "setting": "in ethyl acetate, 313.15 K", "result": 0.0139}, {"measurement": "solubility (mole fraction)", "setting": "in isopropanol, 273.15 K", "result": 0.00074}, {"measurement": "solubility (mole fraction)", "setting": "in isopropanol, 278.15 K", "result": 0.00102}, {"measurement": "solubility (mole fraction)", "setting": "in isopropanol, 283.15 K", "result": 0.00138}, {"measurement": "solubility (mole fraction)", "setting": "in isopropanol, 288.15 K", "result": 0.00213}, {"measurement": "solubility (mole fraction)", "setting": "in isopropanol, 293.15 K", "result": 0.00304}, {"measurement": "solubility (mole fraction)", "setting": "in isopropanol, 298.15 K", "result": 0.00415}, {"measurement": "solubility (mole fraction)", "setting": "in isopropanol, 303.15 K", "result": 0.00571}, {"measurement": "solubility (mole fraction)", "setting": "in isopropanol, 308.15 K", "result": 0.00785}, {"measurement": "solubility (mole fraction)", "setting": "in isopropanol, 313.15 K", "result": 0.0112}, {"measurement": "solubility (mole fraction)", "setting": "in isopropyl acetate, 273.15 K", "result": 0.0011}, {"measurement": "solubility (mole fraction)", "setting": "in isopropyl acetate, 278.15 K", "result": 0.00136}, {"measurement": "solubility (mole fraction)", "setting": "in isopropyl acetate, 283.15 K", "result": 0.00171}, {"measurement": "solubility (mole fraction)", "setting": "in isopropyl acetate, 288.15 K", "result": 0.00205}, {"measurement": "solubility (mole fraction)", "setting": "in isopropyl acetate, 293.15 K", "result": 0.00243}, {"measurement": "solubility (mole fraction)", "setting": "in isopropyl acetate, 298.15 K", "result": 0.00295}, {"measurement": "solubility (mole fraction)", "setting": "in isopropyl acetate, 303.15 K", "result": 0.00355}, {"measurement": "solubility (mole fraction)", "setting": "in isopropyl acetate, 308.15 K", "result": 0.0045}, {"measurement": "solubility (mole fraction)", "setting": "in isopropyl acetate, 313.15 K", "result": 0.00545}, {"measurement": "solubility (mole fraction)", "setting": "in n-butanol, 273.15 K", "result": 0.00106}, {"measurement": "solubility (mole fraction)", "setting": "in n-butanol, 278.15 K", "result": 0.00155}, {"measurement": "solubility (mole fraction)", "setting": "in n-butanol, 283.15 K", "result": 0.0021}, {"measurement": "solubility (mole fraction)", "setting": "in n-butanol, 288.15 K", "result": 0.00278}, {"measurement": "solubility (mole fraction)", "setting": "in n-butanol, 293.15 K", "result": 0.00371}, {"measurement": "solubility (mole fraction)", "setting": "in n-butanol, 298.15 K", "result": 0.00476}, {"measurement": "solubility (mole fraction)", "setting": "in n-butanol, 303.15 K", "result": 0.00633}, {"measurement": "solubility (mole fraction)", "setting": "in n-butanol, 308.15 K", "result": 0.00826}, {"measurement": "solubility (mole fraction)", "setting": "in n-butanol, 313.15 K", "result": 0.0114}, {"measurement": "solubility (mole fraction)", "setting": "in n-propanol, 273.15 K", "result": 0.00212}, {"measurement": "solubility (mole fraction)", "setting": "in n-propanol, 278.15 K", "result": 0.00288}, {"measurement": "solubility (mole fraction)", "setting": "in n-propanol, 283.15 K", "result": 0.00387}, {"measurement": "solubility (mole fraction)", "setting": "in n-propanol, 288.15 K", "result": 0.00513}, {"measurement": "solubility (mole fraction)", "setting": "in n-propanol, 293.15 K", "result": 0.00683}, {"measurement": "solubility (mole fraction)", "setting": "in n-propanol, 298.15 K", "result": 0.00958}, {"measurement": "solubility (mole fraction)", "setting": "in n-propanol, 303.15 K", "result": 0.0128}, {"measurement": "solubility (mole fraction)", "setting": "in n-propanol, 308.15 K", "result": 0.0165}, {"measurement": "solubility (mole fraction)", "setting": "in n-propanol, 313.15 K", "result": 0.0222}, {"measurement": "solubility (mole fraction)", "setting": "in sec-butanol, 273.15 K", "result": 0.000855}, {"measurement": "solubility (mole fraction)", "setting": "in sec-butanol, 278.15 K", "result": 0.00116}, {"measurement": "solubility (mole fraction)", "setting": "in sec-butanol, 283.15 K", "result": 0.00181}, {"measurement": "solubility (mole fraction)", "setting": "in sec-butanol, 288.15 K", "result": 0.00249}, {"measurement": "solubility (mole fraction)", "setting": "in sec-butanol, 293.15 K", "result": 0.00359}, {"measurement": "solubility (mole fraction)", "setting": "in sec-butanol, 298.15 K", "result": 0.00494}, {"measurement": "solubility (mole fraction)", "setting": "in sec-butanol, 303.15 K", "result": 0.00693}, {"measurement": "solubility (mole fraction)", "setting": "in sec-butanol, 308.15 K", "result": 0.00992}, {"measurement": "solubility (mole fraction)", "setting": "in sec-butanol, 313.15 K", "result": 0.0137}]}]}
